How the values were obtained:
[1] = test system: STZ induced diabetic model; assay: Plasma glucose level in streptozocin (STZ) induced diabetic rats, 15 days treatment; type: in vivo, Male albino rats of wistar strains; settings: n=6, glibenclamide 3 mg/Kg
Procedure: Male albino rats of wistar strains (150-200 g) were used throughout the studies. Rats were divided into eleven groups of each containing 6 rats. These animals were randomly assigned to the following groups which include (A) control group, (B) standard group (glibenclamide, 3 mg/Kg) and (C) test groups (F1-F9). Diabetes was induced by injecting streptozocin (STZ) in a dose of 65 mg/kg intra venous in 0.1M citrate buffer. Rats were kept fasted overnight but were given water ad libitum. After 48 hours of STZ injection, blood samples were taken from tail vein of conscious rats. The blood was centrifuged at 5000 rpm for 10 minutes in an eppendorf tubes containing EDTA (1 mg/ml of blood). Plasma glucose estimations were done by glucose oxidase method by using Auto blood analyzer (Techinicon RA-100, Bayer Diagnostics, Ireland). Animals with blood glucose level more than 250% of the fasting level were considered to be diabetic and were used for the experiment. Group A was given normal saline, group B was given glibenclamide and various groups of C were given herbal compositions for 15 days at least once in day. Blood was collected from tail veins of all the rats after 7 days and 15 days of treatment and glucose levels were estimated as described previously (Table 2). The statistical analysis was performed using Prism program (Graphpad software). […]

[2] = test system: oral glucose tolerance in rats; assay: Glucose Tolerance Test (GTT) in rats; type: in vivo, Male albino rats of wistar strains; settings: rats loaded with glucose 5 g/kg 2 hours after dosing; P<0.05; glibenclamide 3 mg/Kg
Excerpt: Brief description of the accompanying drawings: Figure-1. Describes the effect of herbal formulation and glibenclamide on oral glucose tolerance tests in rats. From the above STZ induced diabetic model the composition 1 has chosen for GTT study. Male albino rats of wistar strains (150-200 g) were used. They were divided into three groups each containing 6 rats. They were randomly assigned A) control group B) standard group (glibenclamide) C) test group. Group A was given saline, group B was given glibenclamide (3 mg/Kg) and group C was given test compositions. After 2 hours all rats were loaded with glucose with a dose of 5 g/kg. Blood samples were taken from tail vein of conscious rats for every 30 minutes up to 3 hours. Plasma glucose estimations were done by glucose oxidase method by using Auto Blood Analyzer as described in FIG. 1. The statistical analysis was performed using Prism program (Graphpad software). Annova with post Newman—Keul test with P values was used to compare the treatment efficacy between the test groups.

Compound: COc1ccc(Cl)cc1C(=O)NCCc1ccc(S(=O)(=O)NC(=O)NC2CCCCC2)cc1 [Glibenclamide]
- % reduction in glucose levels ([1]; Day 7th of treatment): 27 ± 2.6%
- % reduction in glucose levels ([1]; Day 15th of treatment): 38 ± 2.9%
- glucose tolerance compared to control group [2]: increased
